The compounds below were run against T1, human EP4 receptors (Homo sapiens, UniProt P35408) (assay: cAMP assay in human EP4 transfectant). Conditions: HEK293 cells expressing human EP4 receptors, 1 nM PGE2, 0.2 mM IBMX, 37° C. for 10 min.
T1 construct: expressed in transfected cells
T1 sequence (P35408 whole entry): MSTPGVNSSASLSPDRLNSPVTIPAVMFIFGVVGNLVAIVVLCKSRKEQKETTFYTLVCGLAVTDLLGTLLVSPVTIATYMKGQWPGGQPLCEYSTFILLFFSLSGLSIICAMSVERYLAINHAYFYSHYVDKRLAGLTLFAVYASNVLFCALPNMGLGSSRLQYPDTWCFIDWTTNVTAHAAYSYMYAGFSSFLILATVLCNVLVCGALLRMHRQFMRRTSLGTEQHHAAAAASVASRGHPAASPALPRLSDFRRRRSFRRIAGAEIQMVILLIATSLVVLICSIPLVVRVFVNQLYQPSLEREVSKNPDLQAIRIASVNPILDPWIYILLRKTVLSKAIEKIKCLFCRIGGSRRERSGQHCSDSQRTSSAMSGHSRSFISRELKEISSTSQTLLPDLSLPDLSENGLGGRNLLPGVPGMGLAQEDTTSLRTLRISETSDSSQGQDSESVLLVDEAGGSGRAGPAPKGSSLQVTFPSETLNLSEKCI
Format: cell-based
Method: cAMP Assay in Human EP4 Transfectant
HEK293 cells expressing human EP4 receptors (hEP4 cells) are maintained in DMEM containing 10% FBS and 500 μg/ml geneticin. For harvesting hEP4 cells, culture medium is aspirated and cells in 75 cm^2 flask are washed with 10 ml of phosphate buffered saline (PBS). Another 10 ml of PBS is added to the cells and incubated for 20 min at room temperature. Human EP4 cells are harvested by pipetting and centrifuged at 300×g for 4 min. Cells are resuspended in DMEM without neutral red at a density of 7×10^5 cells/ml containing 0.2 mM IBMX (PDE inhibitor), 1 nM PGE2 and test compounds in PCR-tubes, and incubated at 37° C. for 10 min. The reaction is stopped by heating at 100° C. for 10 min with thermal cycler. Concentration of cAMP in reaction mixtures is determined with SPA cAMP Kit (Amersham) or cAMP Screen™ (Applied Biosystems) according to the manufacture's instruction. • Reference: Eur. J. Pharmacol. 340 (1997) 227-241. In Vivo Assays Carrageenan Induced Mechanical Hyperalgesia in Rats: […]
Work on `C[C@H](NC(=O)c1cc(Cl)ccc1COc1ccccc1Cl)c1ccc(C(=O)O)cc1` [EXAMPLE 1, 4-[(1S)-1-({5-chloro-2-[(2-chlorophenoxy)methyl]benzoyl}amino)ethyl]benzoic Acid] yielded an IC50 of 0.019 µM.
With `C[C@H](NC(=O)c1cc(Cl)ccc1COc1cccc(Cl)c1)c1ccc(C(=O)O)cc1` [EXAMPLE 2, 4-[(1S)-1-({5-chloro-2-[(3-chlorophenoxy)methyl]benzoyl}amino)ethyl]benzoic Acid] the IC50 was 0.011 µM.
In the case of `C[C@H](NC(=O)c1cc(Cl)ccc1COc1ccc(Cl)cc1)c1ccc(C(=O)O)cc1` [EXAMPLE 3, 4-[(1S)-1-({5-chloro-2-[(4-chlorophenoxy)methyl]benzoyl}amino)ethyl]benzoic Acid], the IC50 is reported as 0.0075 µM.
`C[C@H](NC(=O)c1cc(Cl)ccc1COc1ccc(F)cc1)c1ccc(C(=O)O)cc1` [EXAMPLE 4, 4-[(1S)-1-({5-chloro-2-[(4-fluorophenoxy)methyl]benzoyl}amino)ethyl]benzoic Acid] was tested, and the IC50 was 0.015 µM.
With `C[C@H](NC(=O)c1cc(Cl)ccc1COc1cccc(F)c1)c1ccc(C(=O)O)cc1` [EXAMPLE 5, 4-[(1S)-1-({5-chloro-2-[(3-fluorophenoxy)methyl]benzoyl}amino)ethyl]benzoic Acid] the IC50 was 0.023 µM.
`C[C@H](NC(=O)c1cc(Cl)ccc1COc1ccccc1F)c1ccc(C(=O)O)cc1` [EXAMPLE 6, 4-[(1S)-1-({5-chloro-2-[(2-fluorophenoxy)methyl]benzoyl}amino)ethyl]benzoic Acid] showed an IC50 of 0.03 µM.
Work on `C[C@H](NC(=O)c1cc(Cl)ccc1COc1cccc(F)c1F)c1ccc(C(=O)O)cc1` [EXAMPLE 7, 4-[(1S)-1-({5-chloro-2-[(2,3-difluorophenoxy)methyl]benzoyl}amino)ethyl]benzoic Acid] yielded an IC50 of 0.015 µM.
For `C[C@H](NC(=O)c1cc(Cl)ccc1COc1ccc(F)cc1F)c1ccc(C(=O)O)cc1` [EXAMPLE 8, 4-[(1S)-1-({5-chloro-2-[(2,4-difluorophenoxy)methyl]benzoyl}amino)ethyl]benzoic Acid], the IC50 was 0.017 µM.
Compound `C[C@H](NC(=O)c1cc(Cl)ccc1COc1cc(F)ccc1F)c1ccc(C(=O)O)cc1` [EXAMPLE 9, 4-[(1S)-1-({5-chloro-2-[(2,5-difluorophenoxy)methyl]benzoyl}amino)ethyl]benzoic Acid] has an IC50 of 0.041 µM.
In the case of `C[C@H](NC(=O)c1cc(Cl)ccc1COc1c(F)cccc1F)c1ccc(C(=O)O)cc1` [EXAMPLE 10, 4-[(1S)-1-({5-chloro-2-[(2,6-difluorophenoxy)methyl]benzoyl}amino)ethyl]benzoic Acid], the IC50 is reported as 0.024 µM.
Work on `C[C@H](NC(=O)c1cc(Cl)ccc1COc1ccc(F)c(F)c1)c1ccc(C(=O)O)cc1` [EXAMPLE 11, 4-[(1S)-1-({5-chloro-2-[(3,4-difluorophenoxy)methyl]benzoyl}amino)ethyl]benzoic Acid] yielded an IC50 of 0.016 µM.
Compound `C[C@H](NC(=O)c1cc(Cl)ccc1COc1cc(F)cc(F)c1)c1ccc(C(=O)O)cc1` [EXAMPLE 12, 4-[(1S)-1-({5-chloro-2-[(3,5-difluorophenoxy)methyl]benzoyl}amino)ethyl]benzoic Acid] has an IC50 of 0.022 µM.
Work on `Cc1ccc(OCc2ccc(Cl)cc2C(=O)N[C@@H](C)c2ccc(C(=O)O)cc2)cc1` [EXAMPLE 13, 4-[(1S)-1-({5-chloro-2-[(4-methylphenoxy)methyl]benzoyl}amino)ethyl]benzoic Acid] yielded an IC50 of 0.0083 µM.
In the case of `C[C@H](NC(=O)c1cc(Cl)ccc1COc1cncc(F)c1)c1ccc(C(=O)O)cc1` [EXAMPLE 14, 4-{(1S)-1-[(5-chloro-2-{[(5-fluoropyridin-3-yl)oxy]methyl}benzoyl)amino]ethyl}benzoic Acid], the IC50 is reported as 0.38 µM.
Compound `C[C@H](NC(=O)c1cc(Cl)ccc1COc1cncc(Cl)c1)c1ccc(C(=O)O)cc1` [EXAMPLE 15, 4-{(1S)-1-[(5-chloro-2-{[(5-chloropyridin-3-yl)oxy]methyl}benzoyl)amino]ethyl}benzoic Acid] has an IC50 of 0.16 µM.
`C[C@H](NC(=O)c1cc(Cl)ccc1COC1CCCC1)c1ccc(C(=O)O)cc1` [EXAMPLE 16, 4-[(1S)-1-({5-chloro-2-[(cyclopentyloxy)methyl]benzoyl}amino)ethyl]benzoic Acid] gave an IC50 of 0.47 µM.
Compound `CC(C)COCc1ccc(Cl)cc1C(=O)N[C@@H](C)c1ccc(C(=O)O)cc1` [EXAMPLE 17, 4-((1S)-1-{[5-chloro-2-(isobutoxymethyl)benzoyl]amino}ethyl)benzoic Acid] has an IC50 of 0.18 µM.
In the case of `C[C@H](NC(=O)c1cc(Cl)cnc1COc1ccc(Cl)cc1)c1ccc(C(=O)O)cc1` [EXAMPLE 18, 4-{(1S)-1-[({5-chloro-2-[(4-chlorophenoxy)methyl]pyridin-3-yl}carbonyl)amino]ethyl}benzoic Acid], the IC50 is reported as 0.022 µM.
For `CNC(=O)c1cccc(OCc2ccc(Cl)cc2C(=O)N[C@@H](C)c2ccc(C(=O)O)cc2)c1` [EXAMPLE 19, 4-((1S)-1-{[5-chloro-2-({3-[(methylamino)carbonyl]phenoxy}methyl)benzoyl]amino}ethyl)benzoic Acid], the IC50 was 0.22 µM.
With `C[C@H](NC(=O)c1cc(Cl)cnc1COc1cccc(Cl)c1)c1ccc(C(=O)O)cc1` [EXAMPLE 20, 4-{(1S)-1-[({5-chloro-2-[(3-chlorophenoxy)methyl]pyridin-3-yl}carbonyl)amino]ethyl}benzoic Acid] the IC50 was 0.017 µM.
In the case of `C[C@H](NC(=O)c1cc(F)cnc1COc1ccc(Cl)cc1)c1ccc(C(=O)O)cc1` [EXAMPLE 21, 4-{(1S)-1-[({2-[(4-chlorophenoxy)methyl]-5-fluoropyridin-3-yl}carbonyl)amino]ethyl}benzoic Acid], the IC50 is reported as 0.048 µM.
For `C[C@H](NC(=O)c1cc(Cl)ccc1CN(C)c1ccc(Cl)cn1)c1ccc(C(=O)O)cc1` [EXAMPLE 22, 4-{(1S)-1-[(5-chloro-2-{[(5-chloropyridin-2-yl)(methyl)amino]methyl}benzoyl)amino]ethyl}benzoic Acid], the IC50 was 0.068 µM.
Compound `C[C@H](NC(=O)c1cc(Cl)ccc1COCC1CCCCC1)c1ccc(C(=O)O)cc1` [EXAMPLE 23, 4-{(1S)-1-({5-chloro-2-[(cyclohexylmethoxy)methyl]benzoyl}amino)ethyl}benzoic Acid] has an IC50 of 0.01 µM.
Compound `C[C@H](NC(=O)c1cc(Cl)ccc1COCC(C)(C)C)c1ccc(C(=O)O)cc1` [EXAMPLE 24, 4-{(1S)-1-({5-chloro-2-[(2,2-dimethylpropoxy)methyl]benzoyl}amino)ethyl}benzoic Acid] has an IC50 of 0.12 µM.
Work on `C[C@H](NC(=O)c1cc(Cl)ccc1CN(C)c1ccc(F)cn1)c1ccc(C(=O)O)cc1` [EXAMPLE 25, 4-{(1S)-1-[(5-chloro-2-{[(5-fuluoropyridin-2-yl)(methyl)amino]methyl}benzoyl)amino]ethyl}benzoic Acid] yielded an IC50 of 0.23 µM.
Compound `C[C@H](NC(=O)c1cc(Cl)cnc1COc1cccc(F)c1)c1ccc(C(=O)O)cc1` [EXAMPLE 26, 4-{(1S)-1-[({5-chloro-2-[(3-fluorophenoxy)methyl]pyridin-3-yl}carbonyl)amino]ethyl}benzoic Acid] has an IC50 of 0.056 µM.
Compound `C[C@H](NC(=O)c1cc(Cl)cnc1COc1ccc(F)cc1)c1ccc(C(=O)O)cc1` [EXAMPLE 27, 4-{(1S)-1-[({5-chloro-2-[(4-fluorophenoxy)methyl]pyridin-3-yl}carbonyl)amino]ethyl}benzoic Acid] has an IC50 of 0.091 µM.
